Read-outs that look alike come from different tables or passages of the source.
Columns and labels:
Format in all cases: cell-based
[1] = system: SKNAS neuroblastoma cells (WT); assay: xCELLigence in vitro growth inhibition (IC50); details: Homo sapiens, SK-N-AS, 72 hours, single agent
Procedure: (§1) In vitro inhibitory activity was determined in five (5) neuroblastoma cell lines with a 96-well Real-Time Cell Electronic Sensing xCELLigence system (ACEA, San Diego, Calif.) which measures a “cell index”. Cell index is derived from alterations in electrical impedance as cells interact with the biocompatible microelectrode surface in each well to measure substrate adherent proliferation. Depending on the growth kinetics, the following cell densities were plated per well: NB1643: 20,000; SHSY5Y: 6,000; SKBE2C:10,000; NBEBC1: 11,000; NB1691: 30,000. After 24 hours, the plated cells were treated in triplicate with the test compound, each dose as indicated or with DMSO vehicle control. […] At 72 hours after drug exposure, the cell index was recorded.
(§2) The IC50 was calculated using GraphPad Prism 5.0 four parameter variable slope fitting.

[2] = system: NB1643 (R1275Q) human neuroblastoma cells; assay: ApoTox-Glo Triplex assay, viability and caspase 3/7 apoptosis; details: 72 hours, 1/4 to 4 times IC50, equipotent ratio
Procedure: The effect of treatment with the combinations of the invention on cell viability and apoptosis were evaluated in three human neuroblastoma cell lines: NB1643 (R1275Q), SH-SY5Y (F1174L) and EBC1 (WT) using the ApoTox-Glo Triplex assay. For confirmation, the treatment effect on cell viability was also evaluated in NB1643 (R1275Q) using the CellTitre-Glo (CTG) Luminescent Cell Viability assay. The assays were described, infra.
The test mixtures were evaluated by 72 hours after dosing, and the results were plotted in FIGS. 11A-C, 12A-C, 13A-C and 14A-C.
In vitro cell viability and Caspase-Glo 3/7 were simultaneously assayed using the ApoTox-Glo Triplex Assay (Promega, Calif.) in three neuroblastoma cell lines. […] After 72 hours of drug exposure, the fluorogenic substrate GF-AFC was added. The test mixture was incubated for 10 minutes and AFC fluorescence was measured at 380-400nm excitation and 505 nm emission.
Following measurement of live cell fluorescence, a luminogenic Caspase-Glo 3/7 substrate and luciferase was added to the same wells. Luminescence was measured after a 30 minutes incubation period. Luciferin is released following cleavage of the substrate by caspase-3/7, and thereby the luminescent signal is proportional to caspase activity.

[3] = system: SHSY5Y neuroblastoma cells (F1174L); assay: xCELLigence in vitro growth inhibition and Chou-Talalay combination index; details: Homo sapiens, SH-SY5Y, single agent
Procedure: The concentration dependence of the anti-proliferation effect for both combination partners, first alone and then in combination were measured using the xCELLigence system. CI for each of the treatments was computed by CalcuSyn v2 software (Biosoft, MO).
In vitro inhibitory activity was determined in five (5) neuroblastoma cell lines with a 96-well Real-Time Cell Electronic Sensing xCELLigence system (ACEA, San Diego, Calif.) which measures a “cell index”. Cell index is derived from alterations in electrical impedance as cells interact with the biocompatible microelectrode surface in each well to measure substrate adherent proliferation. […] After 24 hours, the plated cells were treated in triplicate with the test compound, each dose as indicated or with DMSO vehicle control. […] At 72 hours after drug exposure, the cell index was recorded.
The IC50 was calculated using GraphPad Prism 5.0 four parameter variable slope fitting. These values were used in dosing of the combination study which follows.
(§3) Drug combination effects and quantification of synergy were determined using the Chou-Talalay combination index method (Trends Pharmacol Sci 4, 450-454) and CalcuSyn v2 software (Biosoft, MO) in four neuroblastoma cell lines. Cells were plated and in vitro proliferation was measured using the xCELLigence system as described above.
(§4) The anti-proliferation potency of each individual agent was estimated by the median-effect dose, Dm. […] Fa=0 is determined based on DMSO control by the dose, and Fa=1 is a full response (no viable cells left) and. • Fu: fraction unaffected by dose where fu=1−fa.
The effect of combination drug effects was determined utilizing the combination index (CI) as defined by Chou according to the following equation:
where (Dx)1 and (Dx)2 are the concentrations of compounds D1 and D2 needed to produce a given level of anti-proliferative effect when used individually, whereas (D)1 and (O)2 are their concentrations that produce the same anti-proliferative effect when used in combination. The combination index is a quantitative measure of drug interaction defined as an additive effect (CI=1), antagonism (CI>1), or synergy (CI<1). Typically, a CI range, as used herein, is used to assess synergy. A combination index of 0.9-1.1 indicates additive interaction, values below 0.9 indicate synergism, and values over 1.1 indicate antagonism. The follow is a description of the CI ranges: • <0.1+++++ Very strong synergism • 0.1-0.3++++ Strong synergism • 0.3-0.7+++ Synergism • 0.7-0.85++ Moderate synergism • 0.85-0.90+ Slight synergism • 0.90-1.10± Nearly additive • 1.10-1.20− Slight antagonism • 1.20-1.45−− Moderate antagonism
The combination index was used to assess the Dose-Reduction Index (DRI) (Chou and Chou, 1988), where:
CI=(D)1/(Dx)1+(D)2/Dx)2=1/(DRI)1+1/(DRI)2 […]

[4] = system: SKBE2C neuroblastoma cells (WT); assay: xCELLigence in vitro growth inhibition (IC50, Dm); details: Homo sapiens, Neuroblastoma cell, single agent
Procedure: as §1, §2, §3, §4

[5] = system: SH-SY5Y (F1174L) human neuroblastoma cells; assay: Cell morphology and cell death by optical microscopy; details: each compound at its IC50, 72 hours after treatment
Description: Synergistic anti-proliferative effect of the combination of our invention was visualized by optical microscopy. […] Seventy-two hours after treatment, the treated samples were compared to the untreated samples (vehicle) by optical microscopy and recorded in micrographs (FIGS. 10A to D).

[6] = read-out: Dm (median-effect dose)

SMILES | IC50 [1] [nM] | Cell viability (cell death) and apoptosis [2] | IC50 ([3]; 72 hours, read-out: IC50) [nM] | IC50 [3, 6] [nM] | IC50 ([4]; 72 hours, read-out: IC50) [nM] | IC50 [4, 6] [nM] | Intact cells and cell morphology by micrograph [5]
Cc1cc(Nc2ncc(Cl)c(Nc3ccccc3S(=O)(=O)C(C)C)n2)c(OC(C)C)cc1C1CCNCC1 [Compound A1, 5-chloro-N2-(2-isopropoxy-5-methyl-4-(piperidin-4-yl)phenyl)-N4-[2-(propane-2-sulfonyl)-phenyl]-pyrimidine-2,4-diamine] | 2150 | effective in causing cell death and apoptosis | 963 | 1500 | 603 | 350 | significant reduction in the number of intact cells
CN(C)C(=O)c1cc2cnc(Nc3ccc(N4CCNCC4)cn3)nc2n1C1CCCC1 [Compound B, 7-cyclopentyl-N,N-dimethyl-2-((5-(piperazin-1-yl)pyridin-2-yl)amino)-7H-pyrrolo[2,3-d]pyrimidine-6-carboxamide] | 4720 | only slightly effective | 111 | 1500 | 146 | 446 | minimal effect in cell numbers and cell morphology
